Measurements published in a melting point compilation (Tetko et al.; mined from patent text by program, amines drawn as free bases though some values may be those of a salt).

SMILES	melting point [°C]
COC(=O)Cc1nn(Cc2ccc(Br)cc2F)c(=O)c2ccccc12	151 to 153
COc1ccccc1[C@@]1(O)[C@H](O)CC(c2ccccc2)(c2ccccc2)[C@@H]2CN(C(=O)Cc3ccc4ccccc4c3)C[C@@H]21 (racemic)	188 to 190
COc1c(N2CCNCC2)c(F)cc2c(=O)c(C(=O)O)c3n(c12)C(C)S3 (stereo unspecified)	278 to 280
CN1Cc2ccccc2C(=O)c2cc(CC(=O)O)cc(Cl)c21	168 to 170
CC(=O)OC1CSC(Oc2cncc(-c3ccc(C)c(C)c3)c2)C(OC(C)=O)C1OC(C)=O (stereo unspecified)	131
COC(=O)C1=C(C)NC(C)=C(C(=O)OC)C1c1ccccc1NC(C)=O	284 to 285
Cc1ccc(C(=O)NCc2cccnc2)c(Nc2ccc3cn[nH]c3c2)n1	170 to 172
NS(=O)(=O)c1ncccc1OCCF	122 to 123
CC(=O)OCCCC(=O)CC(=O)c1ccccc1	48 to 49
O=C(O)c1cccn1-c1ccc(F)cc1	195 to 196
CCCc1c(OCCCOc2ccc(C(=O)C(=O)OCC)cc2)ccc(C(=O)OC)c1O	62 to 64
CCOC(=O)COc1ccc(Cn2c(-c3ccc(Cl)cc3)c(C)c3cc(OCc4ccccc4)ccc32)cc1	99 to 101
COc1cnc2c(-c3cccc(C(F)(F)F)c3)ccc(C)c2n1	141 to 142
C#CCc1c(C)nc2c(OCc3ccccc3C)cccn12	138 to 140
O=C(O)c1cc(OCc2ccccc2)c(C(=O)c2ccc(Cl)cc2)c([N+](=O)[O-])c1	137 to 138
CC(C)NC(=O)c1ccc(N2CCC(N3C(=O)OCc4ccccc43)CC2)nn1	120
CCOC(=O)COc1ccc(C(=O)Nc2cc(OC)ccc2Sc2ccccc2-c2nnn[nH]2)cc1	195 to 197
Cn1nc(-c2ccncc2)nc1-c1ccncc1	168 to 170
COc1cc2c(cc1Nc1ncc(Cl)c(Nc3ccc(N4CCOCC4)cc3OC)n1)CCN(CC(=O)N1CCOCC1)CC2	189 to 191
N#Cc1c(-c2cccc(C(=O)NCCO)c2)cc(-c2ccccc2O)nc1NC(=O)c1cccs1	218 to 219
COc1cc2c(cc1Nc1ncc(Cl)c(Nc3ccc(C(N)=O)cc3OC)n1)CCN(CCS(C)(=O)=O)CC2	207 to 217
S=c1nc(-c2ccc(Br)cc2)[nH]n1Cc1ccccc1	250 to 251
O=S1(=O)c2cccc3cccc(c23)N1CCN1CCC(CC2Cc3ccccc3C2)CC1	126
O=C(NC1=NN(c2ccccc2)CC1)C(F)(F)F	163 to 165

SMILES	melting point [°C]
Nc1nc(NCC(O)CO)c2ncn(C3C=CC(CO)C3)c2n1 (stereo unspecified)	119 to 121
CC1C=C2C(=CC=CC23NC(=O)NC3=O)O1 (stereo unspecified)	234 to 236
CC(=O)NCc1cccc(-c2nc(=O)c3ccccc3s2)n1	199 to 200
COC(=O)c1cc([N+](=O)[O-])c(Oc2cc(C)cc(C)c2)c(S(N)(=O)=O)c1	197 to 198
CN1C(=O)CC(=O)N(c2ccccc2)c2cc(Cl)ccc21	166 to 168
COc1cc(N(CC(C)C)CC(C)C)ccc1CN1C(=O)C(C)(c2ccccc2Cl)c2cc(Cl)ccc21 (stereo unspecified)	153
COC(=O)CSc1nc(Oc2ccc(N3CCNCC3)cc2)ncc1[N+](=O)[O-]	193 to 195
O=C1CSc2cccc(F)c2N1	190 to 191
CCNn1c(C)nc(N2CCc3ccccc3CC2)c(C#N)c1=O	172 to 174
COc1ccc2c(c1OC)CC=C2c1c[nH]cn1	150
COc1cccc(CNc2nccc(-c3cc(N4CCN(CCCN(C)C5CCCCC5)CC4)c4cc(OC)ccc4c3)n2)c1	155 to 161
Fc1ccc(Cn2c(NC3CCN(CCOc4ccc5ccccc5n4)CC3)nc3ccccc32)cc1	150
COCc1ccc(-c2ccc3c(c2)C=C(C(=O)Nc2ccc(CN(C)C4CCOCC4)cc2)CCS3(=O)=O)cc1	227 to 229
CCOC(=O)COCc1nnc(S)s1	80 to 82
CN1CC=C(c2c[nH]c3ccc(NC(=S)NC(=O)c4ccccc4)cc23)CC1	182 to 184
CCCCCCCCCN(O)C(=O)N(C)C	39 to 40
CSCc1cc(=O)c2ccccc2o1	77 to 79
CCOC(=O)c1cnc2c(c(C)nn2CC)c1Cl	70 to 74
O=C1CCNc2c([N+](=O)[O-])cc(Cl)c(Cl)c21	175 to 176
c1cc(C2CC(c3ccncn3)CC(c3ccncn3)C2)ncn1 (stereo unspecified)	126 to 128
Cc1ncoc1-c1nc(-c2c(F)cccc2F)nn1C	113 to 115
O=C(O)CC1=CSCSC1	97
Cc1cc(SC(C)C)c(NC(=O)CSc2nc3ccccc3s2)c(SC(C)C)n1	117 to 118
COCc1nnc2ccc(-c3ccccc3)nn12	133

SMILES	melting point [°C]
CCc1nc2c(N)nc3ccccc3c2n1Cc1cc(-c2ccc(F)cc2)no1	232 to 233
Cc1n[nH]c(-c2ccc(F)cc2)c1-c1ccc2c(c1)NC(=O)CO2	295 to 298
CC(=O)N1CCc2cc(S(=O)(=O)n3c(COC(C)(C)C(=O)O)cc4cc(Cl)ccc43)ccc21	142 to 144
Cn1cncc1C(O)(c1ccc(Cl)cc1)c1cc2nnn3c(=O)cc(-c4cccc(Cl)c4)c(c1)c23 (stereo unspecified)	226
CCOC(=O)c1ncc2c(c1COC)c1c(OS(=O)(=O)C(F)(F)F)cccc1n2S(=O)(=O)C(F)(F)F	60 to 62
CCCCc1nn(-c2cc(N)ccc2Cl)c(=O)n1Cc1ccc(-c2cc(CCC)ccc2S(=O)(=O)NC(C)(C)C)cc1F	85 to 87
CCOC(=O)/C=C/c1ccc(-c2ccc(O)c(C34CC5CC(CC(C5)C3)C4)c2)c(Cl)c1	216 to 218
CCCCCCCOc1ccc(-c2ccc(OCC(C)CC)nn2)cc1 (stereo unspecified)	91
CC(C)(C)c1ccc(C#N)c(NC(=O)Nc2cccnc2)c1	164 to 166
NS(=O)(=O)c1cc(C(=O)O)cc(S)c1Oc1ccccc1	225
CCCCCCCCCCCCCCOc1cccc(CC(=O)Nc2cccc(CO)c2)c1	86 to 90
C[C@H]1CCCC(C)(C)[C@]1(C)C(=O)c1ccc(F)cc1	49 to 51
O=C(O)Cc1ccccc1OCCn1ccnc1	146 to 147
CCCc1nnc2c3cccc(Br)c3ccn12	197 to 199
CN(C)C=Cc1cccc(CC(=O)O)c1[N+](=O)[O-]	124 to 126
O=[N+]([O-])c1ccc(C2Nc3ccccc3-c3c([N+](=O)[O-])cnn32)cc1 (stereo unspecified)	190 to 191
CCc1c(C)nc2ccc([N+](=O)[O-])cn2c1=O	164 to 165
CC1CC(C)(C)c2ccc(O)cc2O1 (stereo unspecified)	97 to 98
Cc1csc(Cc2ccc([N+](=O)[O-])cc2)n1	81 to 82
C#CCNC(=NCCSCc1csc(NC(=N)N)n1)NC#N	146 to 148
COc1cc(CC#N)c(CCN)cc1OC	78
OCC1OC(n2cnc3c(-c4ccccc4)ncnc32)C(O)C1O (stereo unspecified)	224 to 225
Cn1c(C(F)(F)F)nn(-c2ccc(Cl)c(C(=O)O)c2)c1=O	223
